# US4980377A, “1-(aminophenyl)-2-aminopropanone derivatives” (Laboratoire L. Lafon, priority 1984, dated 1990)
# “Also recorded” adds a separate entry of the source.
# Experiments:
# [1] = tested on: gravid White New Zealand female rabbits; assay: Teratogenicity in gravid White New Zealand rabbits; type: in vivo, rabbit; settings: dose 0 mg/kg [sic]
# Method in brief: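 Fetuses harvested by cesarean on gestation day 29 were scored for number and for any malformation (limb blockade, anury, tail or skull defects, exencephaly).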
# rats [2] = assay: Interaction with apomorphine in rats; type: in vivo, rat; settings: i.p.
# Description: CRL 41 153 is administered to groups of 6 rats 0.5 hour before the subcutaneous injection of 0.5 mg/kg of apomorphine.
# mice [3] = assay: Motility reduced by hypoxic aggression; type: in vivo, mouse; settings: i.p.
# Description: Half an hour after they have received CRL 41 153, the mice (10 per dose, 20 control animals) are subjected to acute hypobaric anoxia [pressure reduction of 600 mm Hg (i.e. about 8×10^4 Pa) in 90 seconds; release of vacuum in 45 seconds] and are then placed in an actimeter, where their motility is recorded for 10 minutes.
# mice [4] = assay: Motility reduced by habituation to the enclosure; type: in vivo, mouse; settings: i.p.
# Description: After they have stayed In the actimeters for 18 hours, (he mice (6 per dose, 12 control animals) receive CRL 41 153. They are immediately returned to their respective enclosures and, half an hour later, their motility is recorded for 30 minutes.
# mice [5] = assay: Spontaneous motility; type: in vivo, mouse; settings: i.p.
# Description: 0.5 hour after they have received CRL 41 153, the mice (6 per dose, 12 control animals) are placed in an actimeter, where their motility is recorded for 30 minutes.
# mice [6] = assay: Asphyxiant anoxia (gallamine triiodoethylate); type: in vivo, mouse; settings: i.p., curarizing agent
# Description: Groups of 10 mice receive CRL 41 153 half an hour before the intraperitoneal administration of 32 mg/kg of gallamine triiodoethylate (reference curarizing agent).
# mice [7] = assay: Interaction with reserpine; type: in vivo, mouse; settings: i.p.
# Description: Four hours after the intraperitoneal injection of 2.5 mg/kg of reserpine, groups of 6 mice receive CRL 41 153.
# rats [8] = assay: Investigation of stereotype movements; type: in vivo, rat; settings: i.p., compared with amphetamine 2 mg/kg
# Description: Immediately after the intraperitoneal administration of CRL 41 194 or amphetamine, groups of 6 rats are placed in Plexiglass boxes (20×10×10 cm). The stereotype movements are graded from 0 to 3 every 10 minutes until they wear off.
# Groups of 6 rats receive an intraperitoneal injection of CRL 41 213, distilled water or amphetamine immediately before being placed in small cages, where their stereotype behavior is graded every 10 minutes until the effect wears off.
# rats [9] = assay: Interaction with amphetamine; type: in vivo, rat; settings: i.p.
# Description: Amphetamine (2 mg/kg) is injected intraperitoneally into groups of 6 rats 30 minutes after the administration of CRL 41 153. […] 4 mg/kg and 16 mg/kg, CRL 41 153 potentiates the intensity and duration of the stereotypies induced by amphetamine.
# male mice = assay: Acute toxicity by intraperitoneal administration; type: in vivo, mouse; settings: i.p.
# Description: (§1) In the neuropsychopharmacological study which follows, a solution of CRL 41 153 in distilled water (pH 1.5) was administered intraperitoneally in a volume of 20 ml/kg to male mice and 5 ml/kg to male rats.
# mice [10] = assay: Four plate test, traction and electric shock; type: in vivo, mouse; settings: i.p.
# Description: The test is performed on groups of 10 mice 30 minutes after the administration of CRL 41 153.
# mice [11] = assay: Overall behavior and reactivities in mice; type: in vivo, mouse; settings: i.p.
# Description: as §1
# (§2) Groups of three animals are observed before and then 0.25 hour, 0.50 hour, 1 hour, 2 hours, 3 hours and 24 hours after the administration of CRL 41 153.
# rats [12] = assay: Overall behavior and reactivities in rats; type: in vivo, rat; settings: i.p.
# Description: as §1, §2
# CNS = assay: Neuropsychopharmacological profile as a whole; type: in vivo, mice and rats
# Description: as §1
# [13] = pH of solutions in distilled water; type: physicochemical
# Description: The neuropsychopharmacological study was undertaken according to the procedures described above for CRL 41 153, CRL 41 213 being adminstered intraperitoneally, in solution in distilled water, in a volume of 20 ml/kg to male mice and a volume of 5 ml/kg to male rats, and the pH of the injected solution varying with the concentration of CRL 41 213 according to the data given in Table II below.
# mice [14] = assay: Interaction with barbital; type: in vivo, mouse; settings: i.p., barbital 220 mg/kg
# Description: Half an hour after the administration of CRL 41 153, groups of 10 mice receive an intraperitoneal injection of barbital (220 mg/kg).
# mice [15] = assay: Intergroup aggressiveness; type: in vivo, mouse; settings: i.p.
# Description: After they have stayed for 3 weeks in the two halves of a cage divided by an opaque partition, groups of 3 mice receive CRL 41 153. Half an hour later, the two groups from the same cage are brought together by removal of the partition, and the number of fights which occur in 10 minutes is noted.
# mice [16] = assay: Behavioral despair; type: in vivo, mouse; settings: forcibly immersed mice, i.p.
# Excerpt: Half an hour after they have received CRL 41 153, groups of 6 mice are placed in a beaker filled with water to a height of 6 cm. The total period of immobility between the 2nd and 6th minutes following immersion is noted.
# mice [17] = assay: Interaction with oxotremorine; type: in vivo, mouse; settings: i.p.
# Description: CRL 41 153 is administered to groups of 6 mice 0.5 hour before the intraperitoneal injection of 0.5 mg/kg of oxotremorine.
# mice [18] = assay: Interaction with apomorphine in mice; type: in vivo, mouse; settings: i.p.
# Description: Groups of 6 mice receive CRL 41 153 0.5 hour before the subcutaneous injection of 1 or 16 mg/kg of apomorphine.
structure (smiles),measurement,setting,value
CCCNC(C)C(=O)c1ccc(N)cc1 (centres unmarked) [CRL 41 213],"Affected foetuses, number",[1],1
same,Total foetuses (live),[1],84
same,"Affected foetuses, %",[1]; normal limit 1.5%,1.19%
same,Effect on stereotypies induced by apomorphine,rats [2],"as from a dose of 2 mg/kg, CRL 41 213 causes an increase in the index of the stereotypes induced by apomorphine; also recorded: This increase is large in terms of intensity and duration at doses of 8 mg/kg and 32 mg/kg"
same,Motor recovery of mice after hypobaric hypoxia,mice [3],"As from 1 mg/kg, CRL 41 213 causes a distinct improvement in the motor recovery"
same,Motor activity of mice accustomed to their enclosure,mice [4],"at doses of 4 mg/kg, 16 mg/kg and 64 mg/kg, CRL 41 213 causes a resumption in the motor activity of mice accustomed to their enclosure"
same,Spontaneous motor activity,mice [5],"At doses of 1 mg/kg, 4 mg/kg and 16 mg/kg, CRL 41 213 causes a substantial increase in the spontaneous motor activity of mice; also recorded: At the strongest dose studied (64 mg/kg), CRL 41 213 causes clonic convulsions and stereotypies"
same,Time taken for convulsions to occur,mice [6],does not modify (he time taken for convulsions to occur
same,Time taken for death to occur,mice [6],"at a dose of 64 mg/kg, it moderately increases the time taken for death to occur"
same,Effect on hypothermia induced by reserpine,mice [7],"at doses of 1 mg/kg and 4 mg/kg, CRL 41 213 opposes the hypothermic action of reserpine; also recorded: at a weaker dose (0.25 mg/kg), no effect is detected"
same,Effect on ptosis induced by reserpine,mice [7],"at doses of 1 mg/kg and 4 mg/kg, CRL 41 213 opposes the hypothermic action of reserpine as well as the ptosis induced by reserpine; also recorded: at a weaker dose (0.25 mg/kg), no effect is detected"
same,Stereotype movements,rats [8],"As from a dose of 2 mg/kg, CRL 41 213 causes the appearance of stereotype movements in rats, the intensity of which is substantially comparable to that obtained with 2 mg/kg of amphetamine; also recorded: Increasing the doses leads to an increase in the intensity and duration of these stereotypies"
same,Effect on stereotypies induced by amphetamine,rats [9],"as from a dose of 2 mg/kg, CRL 41 213 potentiates the stereotypies induced by amphetamine"
same,LD0 (maximum non-lethal dose),male mice,greater than or equal to 128 mg/kg
same,LD100,male mice,less than or equal to 256 mg/kg
same,Effect on convulsant effects of electric shock,mice [10],opposes the convulsant effects of electric shock 116 to 64 mg/kg)
same,Motor incapacity (traction),mice [10],causes motor incapacity (64 mg/kg)
same,Number of punished passes in the four plate test,mice [10],"At doses of 1 mg/kg, 4 mg/kg and 16 mg/kg, CRL 41 213 causes an increase in the number of punished passes; also recorded: This increase is not present at the strongest dose used (64 mg/kg)"
same,Observed symptoms,mice [11]; 1 mg/kg,moderate sedation 0.5 hour after administration
same,Observed symptoms,mice [11]; 4 mg/kg,moderate excitation 0.5 hour after administration; also recorded: piloerection for 0.25 hour
same,Observed symptoms,mice [11]; 16 mg/kg,"excitation for more than 3 hours with the presence of stereotypies for about 2 hours as from the 1st hour following administration; also recorded: an increase in the fear reaction, the reactivity to touch and the aggressiveness for more than 3 hour; also recorded: salivation, lacrimation and exophthalmos for 1 hour; also recorded: polypnea"
same,Observed symptoms,mice [11]; 64 mg/kg,clonic convulsions for 0.5 hour; also recorded: excitation for more than 3 hours with the presence of stereotypies; also recorded: an increase in the fear reaction and the reactivity to touch from 2 hours to more than 3 hours; also recorded: mydriasis for more than 3 hours; also recorded: polypnea
same,Observed symptoms,rats [12]; 0.5 mg/kg,mydriasis for 1 hour
same,Observed symptoms,rats [12]; 2 mg/kg,excitation with the presence of stereotypies; also recorded: an increase in the fear reaction and in the reactivity to touch and noise for 2 hours
same,Observed symptoms,rats [12]; 8 mg/kg,excitation with the presence of stereotypies; also recorded: an increase in the fear reaction and in the reactivity to touch and noise for 3 hours; also recorded: mydriasis for more than 3 hours
same,Observed symptoms,rats [12]; 32 mg/kg,excitation with the presence of very intense stereotypies; also recorded: an increase in the fear reaction and in the reactivity to touch and noise for 3 hours; also recorded: exophthalmos from 0.5 hour to 3 hours; also recorded: mydriasis for 3 hours; also recorded: polypnea
same,Anticonvulsant effects (overall),CNS; conclusion of the tests,"at high but non-toxic doses, CRL 41 213 causes the appearance of clonic convulsions but opposes the convulsant effects of electric shock"
same,Antidepressant effects (overall),CNS; conclusion of the tests,"possessing antidepressant, stimulant and arousing properties"
same,Stimulant effects (overall),CNS; conclusion of the tests,"possessing antidepressant, stimulant and arousing properties"
same,α-adrenergic stimulant effects (overall),CNS; conclusion of the tests,effects reflecting peripheral α-adrenergic stimulation
same,"Peripheral α-adrenergic signs (mydriasis, salivation, lacrimation, exophthalmos)",CNS; species and dose not stated,"mydriasis; also recorded: presence of salivation, lacrimation and exophthalmos"
same,pH,[13]; 0.2 g/liter in distilled water,4.0
same,pH,[13]; 0.4 g/liter in distilled water,3.5
same,pH,[13]; 0.8 g/liter in distilled water,3.0
same,pH,[13]; 1.6 g/liter in distilled water,2.5
same,pH,[13]; 3.2 g/liter in distilled water,2.0
same,pH,[13]; 25 g/liter in distilled water,1.5
same,pH,[13]; 50 g/liter in distilled water,1.0
same,pH,[13]; ≤0.1 g/liter in distilled water,5.0
same,Duration of the sleep induced by barbital,mice [14],as from a dose of 0.5 mg/kg. CRL 41 213 reduces the duration of the sleep induced by barbital; also recorded: Total antagonism is obtained for doses equal to or greater than 4 mg/kg
same,Number of fights / intergroup aggressiveness,mice [15],does not modify the intergroup aggressiveness of mice
same,Period of immobility due to despair,mice [16],"as from a dose of 0.5 mg/kg, CRL 41 213 distinctly reduces the period of immobility; also recorded: Total antagonism is obtained at doses of 4 mg/kg, 16 mg/kg and 64 mg/kg"
same,Effect on hypothermic action of oxotremorine,mice [17],"As from a dose of 4 mg/kg, CRL 41 213 opposes the hypothermic action of oxotremorine; also recorded: At the weakest dose studied (1 mg/kg), this effect is scarcely detectable"
same,Effect on trembling induced by oxotremorine,mice [17],"At the strongest doses (16 and 64 mg/kg), CRL 41 213 reduces the intensity of the trembling"
same,Action on the peripheral cholinergic symptoms,mice [17]; oxotremorine,does not change the signs of peripheral cholinergic stimulation produced by oxotremorine
same,Effect on hypothermia induced by apomorphine,mice [18],"at doses of 1 mg/kg, 4 mg/kg, 16 mg/kg and 64 mg/kg, CRL 41 213 strongly opposes the hypothermia induced by apomorphine in mice"
same,Effect on righting behavior and stereotypies induced by apomorphine,mice [18],"At the strongest dose studied (64 mg/kg), CRL 41 213 moderately reduces the righting behavior without modifying the stereotypies induced by apomorphine"
